Measured values from ChEMBL document CHEMBL1770094, “Design, synthesis and antiproliferative activity of novel aminosubstituted benzothiopyranoisoindoles” (Bioorg Med Chem Lett, 2011).

Legend:
MES-SA = test: Resistant factor, ratio of IC50 for doxorubicin-resistant human MES-SA/Dx5 cells to IC50 for doxorubicin-sensitive human MES-SA cells; format: functional
HCT-116 = test: Cytotoxicity against human HCT116 cells assessed as inhibition of cell proliferation after 72 hrs by MTT assay; format: functional, cell-based; conditions: HCT-116, 72 h
[1] = Cytotoxicity against human MES-SA cells assessed as inhibition of cell proliferation after 72 hrs by MTT assay; format: functional, cell-based
[2] = Cytotoxicity against human MES-SA/Dx5 cells assessed as inhibition of cell proliferation after 72 hrs by MTT assay; format: functional, cell-based; conditions: MES-SA/Dx5, 72 h

SMILES	Ratio IC50 (MES-SA)	IC50 (HCT-116)	IC50 [1]	IC50 [2]
CN(C)CCn1cc2c([N+](=O)[O-])ccc3c2c1-c1ccccc1S3	0.38	2.1 µM	4.44 µM	1700 nM
CCN(CC)CCn1cc2c([N+](=O)[O-])ccc3c2c1-c1ccccc1S3	2.63	2.14 µM	1.93 µM	5080 nM
O=[N+]([O-])c1ccc2c3c(n(CCN4CCCC4)cc13)-c1ccccc1S2	1.25	1.15 µM	1.72 µM	2150 nM
O=[N+]([O-])c1ccc2c3c(n(CCN4CCCCC4)cc13)-c1ccccc1S2	0.55	8.09 µM	16.7 µM	9160 nM
CN(C)CCn1cc2c([N+](=O)[O-])ccc3c2c1-c1ccccc1S3(=O)=O	1.47	5.42 µM	3.52 µM	5180 nM
CCN(CC)CCn1cc2c([N+](=O)[O-])ccc3c2c1-c1ccccc1S3(=O)=O	0.66	6.02 µM	3.98 µM	2610 nM
O=[N+]([O-])c1ccc2c3c(n(CCN4CCCC4)cc13)-c1ccccc1S2(=O)=O	0.63	7.04 µM	2.3 µM	1450 nM
O=[N+]([O-])c1ccc2c3c(n(CCN4CCCCC4)cc13)-c1ccccc1S2(=O)=O	0.64	5.47 µM	3.98 µM	2550 nM
CCN(CC)CCNc1ccc2c3c(n(CCN(CC)CC)cc13)-c1ccccc1S2(=O)=O		60.4 µM	68.2 µM	> 100000 nM
COc1cccc2c1C(=O)c1c(O)c3c(c(O)c1C2=O)C[C@@](O)(C(=O)CO)C[C@@H]3O[C@H]1C[C@H](N)[C@H](O)[C@H](C)O1 [DOXORUBICIN]	79.93	0.16 µM	0.03 µM	2400 nM
O=C1c2c(O)ccc(O)c2C(=O)c2c(NCCNCCO)ccc(NCCNCCO)c21 [MITOXANTRONE]	6.67	0.022 µM	0.012 µM	80 nM
